Laboratory results: US20260199484A1, “PROTAC DEGRADERS OF MLLT1 AND/OR MLLT3” (DARK BLUE THERAPEUTICS LTD, priority 2024, published 2026)

Columns and labels:
MV4-11 cells [1] = assay: MV4-11 cellular proliferative assay, Assay Format A (CellTiter-Glo, 120 h); format: cell-based; conditions: Homo sapiens, Assay method A, Table 3, read-out: MV4-11 antiproliferative IC50
Procedure, shortened: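 MV4-11 cells seeded at 50 cells/well and exposed for 120 h to compound (10 semi-log dilutions, top 30 μM) or DMSO. Viability by CellTiter-Glo luminescence, normalised to DMSO and reference-compound wells; AC50 from Hill fit.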

MLLT1 [2] = target: T1, MLLT1 (Homo sapiens, UniProt Q03111); assay: MLLT1 HTRF IC50 determination assay (H3K9cro peptide displacement); format: binding
T1 sequence (Q03111 1-559): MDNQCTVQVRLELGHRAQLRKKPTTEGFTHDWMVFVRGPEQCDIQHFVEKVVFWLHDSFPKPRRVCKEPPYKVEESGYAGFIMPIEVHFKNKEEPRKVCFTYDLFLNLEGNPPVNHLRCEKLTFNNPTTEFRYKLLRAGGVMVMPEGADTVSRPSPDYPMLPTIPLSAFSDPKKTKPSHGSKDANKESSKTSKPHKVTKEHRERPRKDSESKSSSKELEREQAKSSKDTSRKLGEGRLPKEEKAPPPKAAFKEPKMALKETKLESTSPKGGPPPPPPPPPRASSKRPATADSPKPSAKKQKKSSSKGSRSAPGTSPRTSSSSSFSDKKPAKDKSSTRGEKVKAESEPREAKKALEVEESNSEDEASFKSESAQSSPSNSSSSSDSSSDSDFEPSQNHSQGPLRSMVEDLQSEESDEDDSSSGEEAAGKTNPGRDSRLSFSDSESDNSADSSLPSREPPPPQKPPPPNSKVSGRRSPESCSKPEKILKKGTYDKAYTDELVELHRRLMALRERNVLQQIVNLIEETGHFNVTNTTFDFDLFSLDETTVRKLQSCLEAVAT
Description: (§1) This procedure is intended to measure the interaction between YEATS proteins and histone peptides modified by an appropriate epigenetic mark and can be used to assay compounds which bind to the YEATS proteins and inhibit this interaction. The assay uses 6His tagged MLLT1 or MLLT3 with an anti-6His antibody conjugated with Eu^3+ chelate (donor) and a biotinylated peptide with Streptavidin conjugated XL-665 (acceptor). When the donor and acceptor labels are in close proximity, by binding of the peptide by MLLT1 or MLLT3, the excitation of the donor (337 nm) triggers a Fluorescence Resonance Energy Transfer (FRET) to the acceptor which then fluoresces at specific wavelength (665 nm).
(§2) This step optimises the protein/peptide ratio that will be used in HTRF screening assay in order to allow the best signal-to-noise ratio. Each new purified protein should be titrate this way as the signal-to-noise ratio may differ from different protein batches. Displacement assay for MLLT1 and MLLT3 was performed by using H3K9 cro peptide (ARTKQTAR(Kcrot)STGGKAPRKQLYK(biotin)).
(§3) A serial dilution of 4× solution of biotinylated peptide was prepared in assay buffer (25 mM HEPES, 20 mM NaCl, 0.05% BSA, 0.05% Tween-20, pH 7.0) covering concentrations from 3.2 μM to 0.2 nM. and 5 μL of each dilution were transferred horizontally to fill 15 columns of a white ProxiPlate-384 Plus shallow well Microplate (Perkin Elmer, USA). A sixteenth column of buffer was also included for a background reference. In parallel, a serial dilution of the 6His-tag protein of interest was prepared in the same way and 5 μL of each dilution were vertically added to the wells containing the peptide dilutions. Buffer has been transferred to the last line of the plate in order to make a no-protein reference. The microplate has been covered and incubated 1 hour at room temperature. A 2× detection mix was prepared in assay buffer by diluting streptavidin conjugated with XL-665 (610SAXLB, Cisbio Bioassays, France) to 1/2000 and anti-6His(Eu) chelate (LANCE Eu-W1024 Anti-6×His, ADO111, Perkinelmer LAS (UK)LTD) to 1/20000, 10 μL were added to each well and the plate has been incubated for 1 to 24 hours at room temperature in the dark. The plate was read in the Pherastar using the HTRF module with dual emission protocol (A=ex. 320 nm em. 665 nm, B=ex. 320 nm em. 620 nm).
(§4) The HTRF ratio was calculated as channel A/B*10000 and the specific signal as follow: specific signal=HTRF Ratio Positive signal—HTRF Ratio Negative signal (without protein). The concentrations of protein and peptide that allow the maximum specific signal without saturation were selected to perform HRTF screening assay described below.
(§5) The compounds were dissolved in DMSO at a stock concentration of 10 mM and dispensed into microplate using the Echo acoustic liquid handler (Labcyte, Beckman Coulter, USA). The assay covers a window of compound concentrations from 20 μM to 20 nM spread in 11 data points in duplicate. Solvent and compound controls were added to each plate in order to calculate the background signal.
(§6) Ten microliters of 2× mix of 6His-protein and biotinylated peptide, the concentrations were determined above, were added to the dispensed compounds and incubated for one hour at room temperature in the dark. Ten microliters of the 2× detection mix was added to each well and the plate was incubated for another hour at room temperature in the dark and the plate was read in order to calculate the HTRF specific signal. The % inhibition values as follows:
(§7) The IC50 values were determined by plotting % inhibition vs compound concentration and fitting the data to a non-linear sigmoidal dose response equation (4 parameter fit): […]

MLLT3 = target: T2, MLLT3 (Homo sapiens, UniProt P42568); assay: MLLT3 HTRF IC50 determination assay (H3K9cro peptide displacement); format: binding
T2 sequence (P42568 1-568): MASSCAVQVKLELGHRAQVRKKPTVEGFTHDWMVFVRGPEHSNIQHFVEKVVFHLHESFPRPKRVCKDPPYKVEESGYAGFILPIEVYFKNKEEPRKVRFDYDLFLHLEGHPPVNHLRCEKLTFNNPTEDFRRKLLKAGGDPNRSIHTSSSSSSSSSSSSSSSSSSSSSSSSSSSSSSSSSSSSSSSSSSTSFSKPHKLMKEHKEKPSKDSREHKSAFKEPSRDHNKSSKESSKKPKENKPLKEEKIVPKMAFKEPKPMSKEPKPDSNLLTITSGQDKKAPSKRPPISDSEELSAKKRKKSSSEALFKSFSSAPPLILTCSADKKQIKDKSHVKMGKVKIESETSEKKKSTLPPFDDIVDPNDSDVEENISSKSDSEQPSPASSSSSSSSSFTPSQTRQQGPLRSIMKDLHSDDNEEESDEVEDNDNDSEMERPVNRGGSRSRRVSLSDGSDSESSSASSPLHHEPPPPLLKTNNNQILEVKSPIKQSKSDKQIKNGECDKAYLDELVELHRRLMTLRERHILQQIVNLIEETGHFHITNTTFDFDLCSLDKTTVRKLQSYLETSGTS
Description: as §1, §2, §3, §4, §5, §6, §7

MV4-11 cells [3] = assay: MV4-11 cellular proliferative assay, Assay Format B (CTG 2.0, 168 h); format: cell-based; conditions: Homo sapiens, Assay Method B, Table 7, read-out: MV4-11 Antiproliferation IC50
Procedure, shortened: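 Cells seeded at 600/well in IMDM + 10% FBS, incubated overnight, then exposed 168 h (7 days) at 37 °C to 10 concentrations, 3-fold dilutions from 1 uM or 100 nM top dose (0.3% DMSO final). Viability by CTG 2.0 luminescence as % of DMSO control; curves fitted by four-parameter logistic regression.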

MLLT1 [4] = target: T1, MLLT1; assay: MLLT1 DC50 and Dmax determination in MV4-11 cells (JESS, 4 h); format: cell-based; design: endogenous in cells; host or cells: MV4-11 (ATCC CRL-9591); conditions: MLLT1 degradation
Procedure: MLLT1 degradation efficacy of compounds was tested in an automated chemiluminescent detection system (JESS, Cat #004-650). MV4-11 (#CRL-9591, ATCC) were seeded at a density of 1.2 million cells/well in a non-treated 6-well cell culture plate in 2.4 mL of complete medium (IMDM+10% FBS+1× Penicillin-Streptomycin). 10 mM DMSO stocks were prepared, and cells were treated with eight concentrations of test compounds, starting from 100 nM, 5-fold dilution, at a final DMSO concentration of 0.1% and incubated for 4 h at 37° C., 5% CO2. Post incubation, cells were centrifuged, washed with HBSS and lysed in 60 μL of RIPA buffer supplemented with Protease inhibitors (sc-24948; Santa Cruz). Protein estimation was done using BCA protein assay kit (23228; Pierce). 4 gg protein lysate (4 μL of 1 μg/μL lysate) was loaded into each well of the JESS cartridge (SM-W004; Bio-techne) and the JESS run was performed using 1:900 dilution of anti-human MLLT1 antibody (ABE2596; Merck) and 1:1200 dilution of anti-human GAPDH antibody (2118; Cell signaling technology) with anti-rabbit secondary detection module (DM-001; Bio-Techne). Post run, data was analysed using “Compass for SW” software for chemiluminescent detection. Peak fit was done using “dropped lines” method. Peak area for MLLT1 and GAPDH was used for the calculation of MLLT1 degradation with respect to DMSO control. Data was shown as “% degradation”. % Degradation was plotted against the respective doses (test compound concentration) and dose-response curve (DRC) was generated using four-parameter logistic equation (non-linear regression). Following parameters for each DRC was captured: DC50 (concentration in nM at which degradation is 50%, interpolated from standard curve and transformed to linear scale), Dmax (maximum % degradation observed). DC50 and Dmax data are captured in Table 7 for Example 1 and Example 110, which is a comparative example.

Row | Compound | IC50 (MV4-11 cells [1]) | IC50 (MLLT1 [2]; Table 5) | IC50 (MLLT1 [2]; category, Table 4) | IC50 (MLLT3; Table 5) | IC50 (MLLT3; category, Table 4) | IC50 (MV4-11 cells [3]) | DC50 (MLLT1 [4]) | Dmax (MLLT1 [4]; maximum % degradation observed)
1 | Cc1nn(C)c2cc(C(=O)Nc3cc4[nH]c([C@H]5CCCN5C)cc4cn3)ccc12 (single isomer, unassigned) [Example 76] | 40 nM | 43 nM | ≤ 100 nM | 81 nM | ≤ 100 nM |  |  | 
2 | Cc1nn(CCCCCCCC#Cc2cccc3c2CN(C2CCC(=O)NC2=O)C3=O)c2cc(C(=O)Nc3cc4[nH]c(CN5CCCC5)cc4cn3)ccc12 (centres unmarked) [Example 110, 1-(9-(2-(2,6-dioxopiperidin-3-yl)-1-oxoisoindolin-4-yl)non-8-yn-1-yl)-3-methyl-N-(2-(pyrrolidin-1-ylmethyl)-1H-pyrrolo[3,2-c]pyridin-6-yl)-1H-indazole-6-carboxamide] |  |  |  |  |  | > 1000 nM | 41 nM | 58%
